System: HL-60
Assay: The compound was evaluated in vitro for cytotoxicity against HL-60 cell lines
Assay type: functional, cell-based
Settings: Homo sapiens

SMILES	IC50 [mM]
CC(=O)NCCCCCCNC(C)=O [HEXAMETHYLENEBISACETAMIDE]	4
CC(=O)NCCCCN(CCCNC(C)=O)C(C)=O	> 16
CC(=O)NCCC(=O)NCCNC(=O)CCNC(C)=O	6
CC(=O)NCCNC(=O)CCNC(C)=O	> 16
CC(=O)NCCCN(CCCCN(CCCNC(C)=O)C(C)=O)C(C)=O	> 16

Source: ChEMBL document CHEMBL1127110, “Novel polyamide inducers of HL-60 cellular differentiation” (Bioorg Med Chem Lett, 1993)
